Source: PubChem BioAssay (NCI)
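In this assay, cells in 96-well plates receive the compound at five concentrations for 48 hours. Endpoints are linearly interpolated between the surrounding concentrations. GI50 = concentration required for 50% inhibition of growth. Definition used: TGI = concentration required for complete inhibition of growth.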

Key:
Test in all cases: NCI tumour cell line growth inhibition, 48 h
[1] = tested on: DLD-1 colon
[2] = tested on: DMS 114 small cell lung
[3] = tested on: DMS 273 small cell lung
[4] = tested on: HOP-18 NSCLC
[5] = tested on: LXFL 529 NSCLC
[6] = tested on: M19-MEL melanoma
[7] = tested on: SNB-78 CNS
[8] = tested on: XF 498 CNS
[9] = tested on: RXF-631 renal
[10] = tested on: P388 leukemia
[11] = tested on: P388/ADR leukemia
[12] = tested on: SN12K1 renal

| SMILES | TGI [1] [µM] | TGI [2] [µM] | TGI [3] [µM] | TGI [4] [µM] | TGI [5] [µM] | TGI [6] [µM] | TGI [7] [µM] | TGI [8] [µM] | GI50 [1] [µM] | GI50 [5] [µM] | GI50 [7] [µM] | TGI [9] [µM] | TGI [10] [µM] | TGI [11] [µM] | TGI [12] [µM] |
| --- | --- | --- | --- | --- | --- | --- | --- | --- | --- | --- | --- | --- | --- | --- | --- |
| COc1ccc(C[C@H](N)C(=O)N2C[C@@H](CO)C[C@@H](n3ccc(=O)[nH]c3=O)C2)cc1 | > 100 | > 100 | > 100 | > 100 | > 100 | > 100 |  |  |  |  |  |  |  |  |  |
| CCCCNC(=O)/N=C/c1c(O)c2ccccc2oc1=O |  | > 100 | > 100 |  | > 100 | > 100 | > 100 | 65.1 |  |  |  |  |  |  |  |
| CCCC(=O)[O-].N.N.N.N.N.[Co+3].[O-][Cl+3]([O-])([O-])[O-] | > 100 |  |  |  | > 100 |  | > 100 |  | > 100 | > 100 | > 100 |  |  |  |  |
| COC(=O)C(NC(=O)c1ccccc1)C(c1ccc(Cl)cc1)P(=O)(OC)OC (stereo not given) | > 100 |  | > 100 |  | > 100 | > 100 | > 100 | > 100 |  |  |  |  |  |  |  |
| Cc1ccc(CCC(=O)C(=O)O)s1 |  | > 100 | > 100 | > 100 | > 100 | > 100 | > 100 | > 100 |  |  |  | > 100 |  |  |  |
| CN(C)/N=N/c1nc[nH]c1C(N)=O |  | 96.8 | 88.3 | 39.2 |  | > 94.7 |  | 84.5 |  |  |  |  | > 98.3 | > 96.5 | 92.6 |
| COc1ccc(Sc2ccccc2N)cc1 | > 100 | > 100 | > 100 | > 100 | > 100 | > 100 | 97.3 | 40 |  |  |  |  |  |  |  |
| COC1OC2=CCC3C(=O)NC(=O)C3C2[C@H](OCc2ccccc2)C1OCc1ccccc1 (stereo not given in full) | 3.71 |  |  | 6.37 | 3.09 |  | 4.12 |  |  |  |  |  |  |  |  |
| C=C1C(=O)OC2CC3(C)OC3CC/C(C)=C/C(OC(C)=O)C12 (stereo not given) | 7.81 | 23 | 31.2 | 23.5 | 5.92 | 22.3 | 35.1 | 4.12 |  |  |  |  |  |  |  |
